Test results as given in PubChem BioAssay AID743470 (Broad Institute, 2014).
Results filed as inconclusive are left out. The source made the active and inactive calls.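 How the source made its calls: active means fitted curve falls past -35% at a concentration up to twice the top valid dose; inconclusive means no clear call, values can overlap the other calls; inactive means signal rising instead of falling, plus the rest.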

Test system: not listed separately
Test: viability loss in HEK293 cells – cell-based, luminescence, dry powder, set 15, cytotoxicity control, dose response (AID 743470)
Details: HEK293T viability, CellTiter-Glo ATP luminescence, 72 h; at 1.35 µM (top of the series)

SMILES | activity change, negative = cytotoxicity
COc1cc([C@@H]2c3cc4c(cc3[C@@H](O[C@@H]3O[C@@H]5CO[C@@H](C)O[C@H]5[C@H](O)[C@H]3O)[C@H]3COC(=O)[C@H]23)OCO4)cc(OC)c1O | -29% (inactive)

Same assay, conditions: HEK293T viability, CellTiter-Glo ATP luminescence, 72 h; at 1.6 µM (top of the series)

SMILES | activity change, negative = cytotoxicity
CCN(CCO)CCCOc1ccc2c(Nc3cc(CC(=O)Nc4cccc(F)c4)[nH]n3)ncnc2c1 | 43.7% (inactive)

Same assay, conditions: HEK293T viability, CellTiter-Glo ATP luminescence, 72 h; at 6 µM (top of the series)

SMILES | activity change, negative = cytotoxicity
Clc1ccc(-c2cnc3ccc(-c4ccccc4)cn23)cc1 | 7.25% (inactive)
CCC(C)(C)C(=O)O[C@H]1C[C@@H](C)C=C2C=C[C@H](C)[C@H](CC[C@@H]3C[C@@H](O)CC(=O)O3)[C@H]21 | 11.4% (inactive)

Same assay, conditions: HEK293T viability, CellTiter-Glo ATP luminescence, 72 h; at 8 µM (top of the series)

SMILES | activity change, negative = cytotoxicity
COc1ccc(S(=O)(=O)N2CC[C@@H]3[C@H](CO)Nc4ccc(-c5ccc(C#N)cc5)cc4[C@@H]32)cc1 | -17.6% (inactive)
COc1ccc(C2=Nn3c(nnc3-c3ccccc3F)SC2)cc1OC | -35.4% (inactive)
COc1ccc(S(=O)(=O)N2CC[C@@H]3[C@@H](CO)N(C)c4ccc(-c5ccc(F)cc5)cc4[C@@H]32)cc1 | 0.125% (inactive)

Same assay, conditions: HEK293T viability, CellTiter-Glo ATP luminescence, 72 h; at 12 µM (top of the series)

SMILES | activity change, negative = cytotoxicity
COc1ccc(NC(=O)Nc2ccc3c(c2)C(=O)N([C@@H](C)CO)C[C@H](C)[C@H](CN(C)Cc2ccc4c(c2)OCO4)O3)cc1 | 20.2% (inactive)
COc1ccc(C(=O)CC2(O)C(=O)Nc3c(Cl)ccc(Cl)c32)cc1 (stereo not drawn) | -19.6% (inactive)
COc1ccc(OC)c(-c2nnc3n2N=C(c2ccc(OC)c(OC)c2)CS3)c1 | -29.9% (inactive)

Same assay, conditions: HEK293T viability, CellTiter-Glo ATP luminescence, 72 h; at 26 µM (top of the series)

SMILES | activity change, negative = cytotoxicity
COc1ccc(-c2cc(NC(C)=O)c3ncc(-c4ccc(OC)c(OC)c4)n3c2)cc1 | -25.2% (inactive)
N#CC1=C(N)Oc2cc(N)ccc2C1c1ccc(Cl)cc1 (stereo not drawn) | -11.1% (inactive)
N#CC1=C(N)Oc2cc(N)ccc2C1c1ccc2ccccc2c1 (stereo not drawn) | -9.63% (inactive)
COC(=O)c1ccc(C2C(C#N)=C(N)Oc3cc(N)ccc32)cc1 (stereo not drawn) | 19.4% (inactive)
COc1cc(Nc2ncc3c(n2)-c2ccc(Cl)cc2C(c2c(F)cccc2OC)=NC3)ccc1C(=O)O | 24.7% (inactive)
COc1ccc(CNc2nc(N3CCC[C@H]3CO)ncc2C(=O)NCc2ncccn2)cc1Cl | -1.87% (inactive)
N#CC1=C(N)Oc2cc(N)ccc2C12C(=O)Nc1ccc(Br)cc12 (stereo not drawn) | 5.19% (inactive)
COc1ccc(S(=O)(=O)N2CC[C@@H]3[C@@H](CO)Nc4ccc(-c5cccc(C#N)c5)cc4[C@@H]32)cc1 | -20.5% (inactive)
N#CC1=C(N)Oc2cc(N)ccc2C1c1cccc(Br)c1 (stereo not drawn) | -38% (inactive)
COc1ccc(-c2ccc3c(c2)[C@H]2[C@H](CCN2S(=O)(=O)c2ccc(OC)cc2)[C@@H](CO)N3C)cc1 | -44.3% (inactive)
COc1ccccc1-c1nnc2n1N=C(c1ccc3c(c1)OCO3)CS2 | -39.2% (inactive)
Cc1c([C@H](C(Cl)Cl)[C@H](O)[C@H]2C[C@H](C)C(=O)O2)ccc2c1C(=O)[C@H]1[C@H]2C[C@@H](Br)[C@@]23O[C@@H](CO[C@H]2O)C[C@]13C | -35.3% (inactive)
Cc1ccc([N+](=O)[O-])cc1S(=O)(=O)N(C)C | -23.2% (inactive)
CN1c2ccc(-c3ccc(C#N)cc3)cc2[C@H]2[C@H](CCN2S(=O)(=O)c2ccc(F)cc2)[C@H]1CO | 13.6% (inactive)
Cc1ccc(C2C(C#N)=C(N)Oc3cc(N)ccc32)cc1 (stereo not drawn) | -10.5% (inactive)
COc1ccc(C2C(C#N)=C(N)Oc3cc(N)ccc32)cc1 (stereo not drawn) | -0.135% (inactive)
N#CC1=C(N)Oc2cc(O)ccc2C1c1cccc(Br)c1 (stereo not drawn) | -24.3% (inactive)
COc1cccc(S(=O)(=O)N2CC[C@@H]3[C@@H](CO)Nc4ccc(-c5ccc(C#N)cc5)cc4[C@@H]32)c1 | -26.5% (inactive)
COc1ccc(C2=Nn3c(nnc3-c3ccccc3)SC2)cc1OC | -1.77% (inactive)

SMILES | activity change, negative = cytotoxicity
CN1c2ccc(-c3ccc(C#N)cc3)cc2[C@H]2[C@H](CCN2S(=O)(=O)c2cccc(F)c2)[C@H]1CO | -71.9% (inactive)
N#CC1=C(N)Oc2cc(OC(=O)c3ccccc3)ccc2C1c1cccc(Br)c1 (stereo not drawn) | -25.6% (inactive)
N#Cc1ccc(-c2ccc3c(c2)[C@H]2[C@H](CCN2S(=O)(=O)c2ccccc2F)[C@@H](CO)N3)cc1 | -7.37% (inactive)
O=C(Nc1c(Cl)cncc1Cl)c1ccc(OC(F)F)c(OCC2CC2)c1 | -18.6% (inactive)
Cc1ccc(S(=O)(=O)N2CC[C@@H]3[C@@H](CO)Nc4ccc(-c5ccc(C#N)cc5)cc4[C@@H]32)cc1 | 17.9% (inactive)
COc1ccc(-c2ccc3c(c2)[C@H]2[C@H](CCN2S(=O)(=O)c2ccc(OC)cc2)[C@@H](CO)N3)cc1 | -6.28% (inactive)
Cc1cccc(C2C(C#N)=C(N)Oc3cc(N)ccc32)c1 (stereo not drawn) | -30.4% (inactive)
COc1cccc(C2C(C#N)=C(N)Oc3cc(N)ccc32)c1 (stereo not drawn) | -23.2% (inactive)
CCCCc1ccc2nc(NC(=O)OC)[nH]c2c1 | -29.4% (inactive)
CN(C(=O)CCCOc1ccc2[nH]c(=O)ccc2c1)C1CCCCC1 | 27% (inactive)
Cc1ccccc1C1C(C#N)=C(N)Oc2cc(N)ccc21 (stereo not drawn) | -16.9% (inactive)
N#CC1=C(N)Oc2cc3c(cc2C1c1cccc(Br)c1)OCO3 (stereo not drawn) | -44.4% (inactive)
COc1ccc(C2CNC(=O)C2)cc1OC1CCCC1 (stereo not drawn) | -2.74% (inactive)
N#CC1=C(N)Oc2ccc3ccccc3c2C1c1cccc(F)c1 (stereo not drawn) | -9.08% (inactive)
COc1ccc(OC)c(-c2nnc3n2N=C(c2ccc(OC)c(OC)c2)CS3)c1 | -31.5% (inactive)
C[C@]1(c2nc3c(C(N)=O)cccc3[nH]2)CCCN1 | -21.6% (inactive)
COc1ccccc1S(=O)(=O)N1CC[C@@H]2[C@@H](CO)Nc3ccc(-c4ccc(C#N)cc4)cc3[C@@H]21 | -22.8% (inactive)
N#Cc1ccc(-c2ccc3c(c2)[C@H]2[C@H](CCN2S(=O)(=O)c2cccc(F)c2)[C@@H](CO)N3)cc1 | -39.9% (inactive)

Same assay, conditions: HEK293T viability, CellTiter-Glo ATP luminescence, 72 h; at 50 µM (top of the series)

SMILES | activity change, negative = cytotoxicity
O=P1(NCCCl)OCCCN1CCCl (stereo not drawn) | 9.21% (inactive)
CCC(C)C(=O)OC1CC(C)C=C2C=CC(C)C(CCC(O)CC(O)CC(=O)O)C21 (stereo not drawn) | 55.2% (inactive)

Same assay, conditions: HEK293T viability, CellTiter-Glo ATP luminescence, 72 h; at 110 µM (top of the series)

SMILES | activity change, negative = cytotoxicity
O=C(c1cc(Cc2n[nH]c(=O)c3ccccc23)ccc1F)N1CCN(C(=O)C2CC2)CC1 | 31.3% (inactive)

Test system: HEK293T viability, CellTiter-Glo ATP luminescence, 72 h
Test: as above
Details: not given

SMILES | AC35 [µM]
COc1ccc(C2=Nn3c(nnc3-c3ccccc3OC)SC2)cc1OC | 0.377
CCOC(=O)CCNc1cc(N2CCc3ccccc3CC2)nc(-c2ccccn2)n1 | 9.37
CC[C@@]1(O)C(=O)OCc2c1cc1n(c2=O)Cc2cc3c(CN(C)C)c(O)ccc3nc2-1 | 0.181
Nc1ccn([C@@H]2O[C@H](CO)[C@H](O)C2O)c(=O)n1 (stereo partly drawn) | 3.18
N#CC1=C(N)Oc2cc(N)ccc2C1c1cccc(F)c1 (stereo not drawn) | 4.67
N#CC1=C(N)Oc2cc(N)ccc2C1c1ccccc1 (stereo not drawn) | 17.4
CC(C)(O)CCc1ccc(O)c2c(=O)c3c(O)c4c(cc3oc12)O[C@H]1OC=C[C@@]41O | 0.0808
CC[C@]1(O)CC2CN(CCc3c([nH]c4ccccc34)[C@@](C(=O)OC)(c3cc4c(cc3OC)N(C=O)[C@H]3[C@@](O)(C(=O)OC)[C@H](OC(C)=O)[C@]5(CC)C=CCN6CC[C@]43[C@@H]65)C2)C1 (stereo partly drawn) | 0.651
CN1CCN(CCOc2cc(OC3CCOCC3)c3c(Nc4c(Cl)ccc5c4OCO5)ncnc3c2)CC1 | 23.8
CN(C)c1ccc2c(c1)OC(N)=C(C#N)C2c1cccc(F)c1 (stereo not drawn) | 0.586
Clc1ccccc1-c1nnc2n1N=C(c1ccc3c(c1)OCO3)CS2 | 3.54
Nc1ncnc2c1c(-c1cccc(OCc3ccccc3)c1)cn2C1CC(CN2CCCC2)C1 (stereo not drawn) | 9.93
COc1ccc(-c2cc(NC=O)c3ncc(-c4ccc(OC)c(OC)c4)n3c2)cc1 | 5.61
Cc1cc(Nc2cc(N3CCN(C)CC3)nc(Sc3ccc(NC(=O)C4CC4)cc3)n2)n[nH]1 | 3.09
C=C([C@@H](O)[C@@H](C)O)[C@@H](OC)[C@]1(C)Cc2cc3cc(O[C@H]4CC(OC5CC(O)C(O)C(C)O5)C(O)C(C)O4)cc(O)c3c(O)c2C(=O)[C@H]1OC1CC(OC2CC(OC3CC(C)(O)C(O)C(C)O3)C(O)C(C)O2)C(O)C(C)O1 (stereo partly drawn) | 0.188
CC(C)N1c2ccccc2C(c2ccc(F)cc2)C1/C=C/C(O)CC(O)CC(=O)O (stereo not drawn) | 4.91
COc1ccc(S(=O)(=O)N(C(C)=O)c2ccc(OC(C)=O)c3ccccc23)cc1[N+](=O)[O-] | 21.5
COc1ccc(C2=Nn3c(nnc3-c3ccccc3Cl)SC2)cc1OC | 6.79
COc1cc(C2C(C#N)=C(N)Oc3cc(N(C)C)ccc32)cc2c1OCO2 (stereo not drawn) | 0.184
CC1(C)CC(c2nc(-c3ccc4ccc(-c5ccccc5)nc4c3)c3c(N)nccn23)C1 | 4.66
CCc1c2c(nc3ccc(O)cc13)-c1cc3c(c(=O)n1C2)COC(=O)C3(O)CC (stereo not drawn) | 0.0239
COc1ccc(S(=O)(=O)N2CC[C@@H]3[C@@H](CO)Nc4ccc(-c5ccc(C#N)cc5)cc4[C@@H]32)cc1 | 6.16
Cc1nc(Nc2ncc(C(=O)Nc3c(C)cccc3Cl)s2)cc(N2CCN(CCO)CC2)n1 | 38.2
